Target: Beta-glucuronidase (Escherichia coli (strain K12), UniProt P05804)
Test: Biological Assay
Experimental: Successful drug candidate compounds were subjected to numerous biochemical and cellular assays. Purified bacterial β-glucuronidases were challenged with compounds to determine inhibition properties in a standard, robust activity assay, utilizing p-nitrophenyl glucuronide (PNPG) as the enzymatic substrate. Reactions (n=3/inhibitor concentration) were conducted in a 96-well assay, consisting of PNPG substrate (12 concentrations between 25 μM and 5 mM), inhibitor solution (8 concentrations between 0.1 nM and 100 μM), and 5 nM enzyme. […] Purified bovine liver and human β-glucuronidase were dissolved in a reaction mixture containing 1 μM enzyme and 1 mM PNPG as substrate.

Beta-glucuronidase, sequence (P05804 whole entry): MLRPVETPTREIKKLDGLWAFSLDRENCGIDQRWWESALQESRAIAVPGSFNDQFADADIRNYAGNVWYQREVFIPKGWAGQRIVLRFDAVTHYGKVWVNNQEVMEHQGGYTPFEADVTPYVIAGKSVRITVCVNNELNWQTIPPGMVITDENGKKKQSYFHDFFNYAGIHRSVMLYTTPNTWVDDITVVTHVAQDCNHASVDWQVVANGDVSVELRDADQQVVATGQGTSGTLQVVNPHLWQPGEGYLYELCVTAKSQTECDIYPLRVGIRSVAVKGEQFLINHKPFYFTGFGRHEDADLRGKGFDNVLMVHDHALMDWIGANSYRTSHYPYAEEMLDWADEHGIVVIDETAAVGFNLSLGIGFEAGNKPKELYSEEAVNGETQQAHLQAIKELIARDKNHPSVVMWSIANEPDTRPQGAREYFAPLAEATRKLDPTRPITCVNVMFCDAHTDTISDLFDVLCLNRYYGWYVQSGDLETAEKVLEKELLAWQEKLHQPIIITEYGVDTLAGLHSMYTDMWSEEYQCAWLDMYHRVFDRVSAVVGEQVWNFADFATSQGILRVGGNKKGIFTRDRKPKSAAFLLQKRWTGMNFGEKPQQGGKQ

COc1cccc(NC(=O)N(CCO)Cc2cc3cc(C)cc(C)c3[nH]c2=O)c1 [US12017994, Ref #36']
IC50: 3.71 µM

Cc1cc(C)c2[nH]c(=O)c(CN(CCO)C(=O)Nc3ccc(F)cc3C#C[Si](C)(C)C)cc2c1 [US12017994, Ref #44']
IC50: 19.1 µM
